Results reported in ChEMBL document CHEMBL1201862, “PubChem BioAssay data set” (2004).
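Five compound concentrations were applied to cells in 96-well plates for 48 hours; endpoints were derived by simple linear interpolation of the resulting dose-response curve. Here, GI50 denotes the concentration required for 50% inhibition of growth.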 The source made the active and inactive calls. Rule as the data show it: active = GI50 up to about 1.1 µM and inactive = higher.

Columns and labels:
Assay in all cases: NCI tumour cell line growth inhibition, 48 h
[1] = tested on: 786-0
[2] = tested on: HCC 2998
[3] = tested on: HCT-116
[4] = tested on: HL-60
[5] = tested on: HOP-92
[6] = tested on: HT-29
[7] = tested on: Malme-3M
[8] = tested on: NCI-H522
[9] = tested on: OVCAR-8
[10] = tested on: SF-268
[11] = tested on: SF-295
[12] = tested on: SK-MEL-28
[13] = tested on: SNB-19
[14] = tested on: SW-620
[15] = tested on: UACC-257
[16] = tested on: M14
[17] = tested on: SN12C

Measured: GI50

CC1(C)OCC(C(O)C2OC(C)(C)OC2/C=N\O)O1 (stereo not drawn)
inactive: [1] > 100 µM | [2] > 100 µM | [3] > 100 µM | [4] > 100 µM | [5] > 100 µM | [6] > 100 µM | [7] > 100 µM | [8] > 100 µM | [9] > 100 µM | [10] > 100 µM | [11] > 100 µM | [12] > 100 µM | [13] > 100 µM | [14] > 100 µM | [15] > 100 µM

CC1=CC(C)(C)N=C2SC(c3ccc(Cl)cc3)=NN12
inactive: [1] 15.1 µM | [2] 25.6 µM | [4] 12.2 µM | [5] 27.4 µM | [6] 12 µM | [16] 30.5 µM | [7] 24.9 µM | [8] 15.6 µM | [10] 27.5 µM | [11] 31.2 µM | [12] 36.4 µM | [13] 50.1 µM | [14] 32.1 µM | [15] 29.4 µM

CCOC(=O)CNc1nnnn1C1OC(CO)C(O)C1O (stereo not drawn)
inactive: [1] > 100 µM | [2] > 100 µM | [3] > 100 µM | [6] > 100 µM | [16] > 100 µM | [7] > 100 µM | [8] > 100 µM | [9] > 100 µM | [10] > 100 µM | [11] > 100 µM | [17] > 100 µM | [14] > 100 µM | [15] > 100 µM

C[C@]12CCC(=O)C=C1CC[C@@H]1[C@@H]2[C@@H](O)C[C@@]2(C)[C@H]1CC[C@]2(O)C(=O)COC(=O)COCC(=O)O
inactive: [1] > 100 µM | [2] > 100 µM | [3] > 100 µM | [4] > 100 µM | [5] > 100 µM | [6] > 100 µM | [16] > 100 µM | [7] > 100 µM | [8] > 100 µM | [9] > 100 µM | [10] > 100 µM | [11] > 100 µM | [12] > 100 µM | [17] > 100 µM | [13] > 100 µM | [14] > 100 µM | [15] > 100 µM

CC1(C)C2C=CC1C(=O)CC2 (stereo not drawn)
inactive: [1] > 100 µM | [2] > 100 µM | [3] > 100 µM | [4] > 100 µM | [5] > 100 µM | [6] > 100 µM | [16] > 100 µM | [7] > 100 µM | [8] > 100 µM | [9] > 100 µM | [10] > 100 µM | [11] > 100 µM | [12] > 100 µM | [13] 15.9 µM | [14] > 100 µM | [15] 49.9 µM

CC1CCC(C(C)C)C(O[C@@H]2OC(=O)C[C@@H]2Sc2ccccc2)C1 (stereo partly drawn)
inactive: [1] 21 µM | [2] 24.7 µM | [3] 25.9 µM | [4] 18.2 µM | [6] 17.5 µM | [16] 23.2 µM | [7] 18.5 µM | [9] 18.9 µM | [10] 24.4 µM | [11] 21.1 µM | [12] 22.3 µM | [17] 16.8 µM | [13] 35.1 µM | [14] 18.2 µM | [15] 16.3 µM

COC(=O)C1CCC2(CC1)NC(=O)NC2=O (stereo not drawn)
inactive: [1] > 100 µM | [2] > 100 µM | [3] > 100 µM | [4] > 100 µM | [5] > 100 µM | [6] > 100 µM | [16] > 100 µM | [7] > 100 µM | [8] > 100 µM | [9] > 100 µM | [10] > 100 µM | [11] > 100 µM | [12] > 100 µM | [17] > 100 µM | [13] > 100 µM | [14] > 100 µM | [15] > 100 µM

N#Cc1cnsc1
inactive: [1] > 100 µM | [2] > 100 µM | [3] > 100 µM | [4] > 100 µM | [5] > 100 µM | [6] > 100 µM | [16] > 100 µM | [7] > 100 µM | [9] > 100 µM | [10] > 100 µM | [11] > 100 µM | [12] > 100 µM | [17] > 100 µM | [14] > 100 µM | [15] > 100 µM

CC(C)(C)N/N=C(\Cc1occc(=O)c1O)C(=O)Nc1ccc([N+](=O)[O-])cc1[N+](=O)[O-]
inactive: [1] > 100 µM | [3] > 100 µM | [4] > 100 µM | [5] > 100 µM | [6] > 100 µM | [16] > 100 µM | [7] > 100 µM | [8] > 100 µM | [9] > 100 µM | [10] > 100 µM | [11] > 100 µM | [12] > 100 µM | [17] > 100 µM | [13] > 100 µM | [14] > 100 µM | [15] > 100 µM

O=C1CCC(c2nc3cc(Cl)ccc3o2)C(=O)N1 (stereo not drawn)
inactive: [1] > 100 µM | [2] > 100 µM | [3] > 100 µM | [4] > 100 µM | [5] > 100 µM | [6] > 100 µM | [16] > 100 µM | [7] > 100 µM | [8] > 100 µM | [9] > 100 µM | [10] > 100 µM | [11] > 100 µM | [12] > 100 µM | [17] > 100 µM | [13] > 100 µM | [14] > 100 µM | [15] > 100 µM

O=C(O/N=C1\CCCC\C1=C/c1ccccc1)c1ccc([N+](=O)[O-])cc1
inactive: [1] 98.6 µM | [2] > 100 µM | [3] > 100 µM | [4] 76.9 µM | [5] > 100 µM | [6] > 100 µM | [16] > 100 µM | [7] > 100 µM | [8] 69.8 µM | [9] > 100 µM | [10] > 100 µM | [11] 69.8 µM | [12] > 100 µM | [17] > 100 µM | [14] > 100 µM

N#CNC(=N)NC(=O)/C=C/C=C/c1ccc(Cl)cc1
inactive: [1] 88.5 µM | [3] > 100 µM | [4] > 100 µM | [5] > 100 µM | [6] > 100 µM | [16] > 100 µM | [7] 39.4 µM | [8] > 100 µM | [9] 82.2 µM | [10] 52.7 µM | [11] > 100 µM | [12] > 100 µM | [17] > 100 µM | [14] > 100 µM | [15] > 100 µM

COC(=O)C(C(=O)C(=O)Nc1c(Cl)cc([N+](=O)[O-])cc1Cl)c1csc(-n2nc(C3=CCCCC3)cc2-c2ccccc2)n1 (stereo not drawn)
inactive: [1] 74 µM | [2] > 100 µM | [3] 42.5 µM | [4] 40 µM | [5] 10.1 µM | [6] 25.9 µM | [16] > 100 µM | [7] > 100 µM | [8] 45.2 µM | [9] 61.7 µM | [10] 71.8 µM | [11] 43.8 µM | [17] 67.9 µM | [13] 37.3 µM | [14] 71 µM | [15] 46.6 µM

COC1=CC(=O)[C@]2(C)[C@H](C1=O)C(C)[C@H]2c1ccccc1 (stereo partly drawn)
inactive: [1] > 100 µM | [2] > 100 µM | [4] > 100 µM | [5] > 100 µM | [6] > 100 µM | [16] > 100 µM | [7] > 100 µM | [8] > 100 µM | [9] > 100 µM | [10] > 100 µM | [11] > 100 µM | [12] > 100 µM | [13] > 100 µM | [14] > 100 µM | [15] > 100 µM

O=C(C#Cc1cnc(O)nc1O)c1ccccc1Cl
inactive: [1] 18 µM | [2] 16.9 µM | [3] 14.4 µM | [4] 13.3 µM | [5] 19.7 µM | [6] 36.4 µM | [16] 15.5 µM | [7] 13.3 µM | [9] 15.2 µM | [10] 20.7 µM | [11] > 100 µM | [12] 17.9 µM | [17] 14.1 µM | [13] 52.6 µM | [14] 14.2 µM | [15] 14.7 µM

COc1cccc(NC(=O)C(=O)C(C(=O)c2ccccc2F)C2OC(=O)c3ccccc32)c1 (stereo not drawn)
inactive: [2] 17.9 µM | [3] 20 µM | [4] 20.7 µM | [5] > 100 µM | [6] 34.3 µM | [16] 48 µM | [8] 16.1 µM | [9] 21.8 µM | [10] 30.5 µM | [11] 37.7 µM | [12] 58.6 µM | [17] 18.7 µM | [13] 24.9 µM | [14] 42.6 µM | [15] > 100 µM

CCC(C)(C)NC1=C(NC(C)=O)C(=O)c2ccccc2C1=O
inactive: [1] > 75 µM | [2] > 75 µM | [3] 17.7 µM | [4] 16.7 µM | [6] > 75 µM | [16] > 75 µM | [7] 28.7 µM | [8] 10.2 µM | [9] 54.8 µM | [10] > 75 µM | [11] > 75 µM | [12] 61.5 µM | [17] > 75 µM | [13] > 75 µM | [14] 35.1 µM | [15] 20.3 µM
